According to doi:10.1101/2022.05.12.491652v1 (biorxiv, 2022):

How the values were obtained:
PfClpQ = biological target: T1, PfClpQ (Plasmodium falciparum, UniProt Q8I5B6); assay: fluorogenic peptide; format: biochemical
T1 sequence (Q8I5B6 38-207): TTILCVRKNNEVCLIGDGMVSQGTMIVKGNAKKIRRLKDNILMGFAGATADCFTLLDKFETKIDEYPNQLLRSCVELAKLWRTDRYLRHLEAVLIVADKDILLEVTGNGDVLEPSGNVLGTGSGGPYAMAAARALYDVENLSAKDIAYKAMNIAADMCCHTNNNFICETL

in vitro = settings: human, hela cells

| Ki (PfClpQ) [µM] | Structure (SMILES) | CC50 (in vitro) [µM] |
| --- | --- | --- |
| 0.44 | CCn1nc(-c2ccc(C(=O)OC)cc2)nc2c(=O)n(C)c(=O)nc1-2 [CN172, methyl 4-{1-ethyl-6-methyl-5,7-dioxopyrimido[5,4-e][1,2,4]triazin-3-yl}benzoate] | 9.58 |
| – | Cn1nc(-c2ccncc2)nc2c(=O)n(C)c(=O)nc1-2 [ICGEB-L1, 1,6-dimethyl-3-(pyridin-4-yl)-1H,5H,6H,7H-pyrimido[5,4-e][1,2,4]triazine-5,7-dione] | 8.4 |
| – | CCn1nc(-c2ccc(Cl)cc2)nc2c(=O)n(C)c(=O)nc1-2 [ICGEB-L2, 3-(4-chlorophenyl)-1-ethyl-6-methyl-1H,5H,6H,7H-pyrimido [5,4-e] [1,2,4] triazine-5,7-dione] | 9.93 |
| – | CCn1nc(/C=C/c2ccccc2)[n+]([O-])c2c(=O)n(C)c(=O)nc1-2 [ICGEB-L3, 1-ethyl-6-methyl-5,7-dioxo-3-[(1E)-2-phenylethenyl]-1H,5H,6H,7H-pyrimido[5,4-e][1,2,4]triazin-4-ium-4-olate] | 10 |
